The values that follow come from patent EP1090634A1, “Agents for reducing cholesterol and lipid uptake” (Hauser, Helmut, priority 1999, dated 2001).

The test system of this assay is micellar dispersion consisting of 5 mM taurocholate, 0.6 mM oleic acid and 0.1 mM radiolabeled cholesterol. Briefly: In vitro precipitation of cholesterol-carrying bile salt micelles (radioactivity in supernatant after centrifugation; turbidity at 500 nm). To be noted: for precipitation: at the amount calculated for charge equivalence. On the procedure: In order to determine the efficiency of specific cations, an in vitro test was used in which micelles comprising radio labeled cholesterol (cholesterol and micelles were produced according to known methods, see below) were generated. To a predetermined amount of such micelles, the respective precipitant was added in portions, and the precipitation formed upon addition of specific amounts of precipitant measured by two methods, namely by light scattering and by determination of the radioactivity in the supernatant after centrifugation.
A micellar dispersion consisting of 5 mM taurocholate, 0.6 mM oleic acid and 0.1 mM radiolabeled cholesterol was prepared as described before (Schulthess et al., J. Lipid Res. 37, 2405-19 (1996)) using Mg- and Ca-free phosphate-buffered saline (PBS) from Life Technologies, Basel, Switzerland. This stock solution was diluted by adding various amounts of precipitant in PBS, and PBS was added to a final volume of 1 ml. The mixture was shortly vortexed and incubated at room temperature for about 5 min before measuring its optical density (turbidity) at 500 nm. Precipitation (in %) was determined as follows: an aliquot of 200 µl of the incubation mixture was centrifuged for 3 min. at 100'000 g and the radioactivity of 100 µl supernatant was determined in a liquid scintillation counter. The radioactivity of 100 µl of the original mixture was also determined without centrifugation. The precipitation was determined as precipitation (%) = 100 [1-([…])] [formula] • A = radioactivity in supernatant without centrifugation • B = radioactivity in supernatant after centrifugation As a control: the precipitation (%) is determined in the absence of precipitant and a value of precipitation (%) = 2 ± 1 is obtained.

Where [1] appears, read: charge ratio (taurocholate/precipitant) 0.1, PBS.
The mark [2] stands for this setting: charge ratio (taurocholate/precipitant) 0.165, PBS.
Where [3] appears, read: charge ratio (taurocholate/precipitant) 0.5, PBS.
The mark [4] stands for this setting: charge ratio (taurocholate/precipitant) 1, PBS.
Setting [5] is: charge ratio (taurocholate/precipitant) 3, PBS.
[6] abbreviates: charge ratio (taurocholate/precipitant) 2, PBS.
Where [7] appears, read: charge ratio (taurocholate/precipitant) 0.25, PBS.
Setting [8] is: charge ratio (taurocholate/precipitant) 0.2, in PBS.
The mark [9] stands for this setting: charge ratio (taurocholate/precipitant) 1, in 50 mM Tris-HCl, pH=7.4.
The mark [10] stands for this setting: charge ratio (taurocholate/precipitant) 2, in 50 mM Tris-HCl, pH=7.4.
Setting [11] is: charge ratio (taurocholate/precipitant) 5, in PBS.
Setting [12] is: charge ratio (taurocholate/precipitant) 1.4 ± 0.6, PBS.
The mark [13] stands for this setting: charge ratio (taurocholate/precipitant) 0.3, in 10 mM Arg and 10 mM Lys.
Setting [14] is: charge ratio (taurocholate/precipitant) 0.3 ± 0.1, PBS.
The mark [15] stands for this setting: charge ratio (taurocholate/precipitant) 0.6, in 10 mM Arg and 10 mM Lys.
The mark [16] stands for this setting: charge ratio (taurocholate/precipitant) 1.2 ± 0.5, PBS.

Take `NCCCCCCN` [1,6 Hexanediamine]: under setting [1], the “Precipitation (%)” value came out at 0% and the “Turbidity (OD 500 nm)” value was 0 OD 500 nm. Under setting [2], the “Precipitation (%)” value was 0% and the “Turbidity (OD 500 nm)” value is recorded as 0 OD 500 nm.

On to `NCCCCCCCCCCN` [1,10 Diaminodecane], for which the “Precipitation (%)” value came to 0% under setting [3], 0% under setting [4] and 0% under setting [5]. Also, the “Turbidity (OD 500 nm)” value runs as follows: under setting [3], 0 OD 500 nm; under setting [4], 0 OD 500 nm; under setting [5], 0 OD 500 nm.

As for `NCCCCCCCCCCCCN` [1,12 Diaminododecane], the “Precipitation (%)” value (charge ratio (taurocholate/precipitant) 0.125, PBS) was found to be 100%; the “Precipitation (%)” value under setting [3] worked out at 65 ± 5%; the “Precipitation (%)” value under setting [4] is 17 ± 4%; the “Precipitation (%)” value under setting [6] came to 13 ± 4%. For the same compound, the “Turbidity (OD 500 nm)” value is, setting by setting: (charge ratio (taurocholate/precipitant) 0.125, PBS, maximal turbidity observed) 0.4 ± 0.05 (max) OD 500 nm; under setting [3], 0.02 ± 0.01 OD 500 nm; under setting [4], 0.01 ± 0.005 OD 500 nm; under setting [6], 0.01 ± 0.005 OD 500 nm.

In the case of `N=C(N)NCCC[C@H](N)C(=O)O` [Arginine], the “Precipitation (%)” value was 0% under setting [7] and 0% under setting [4]. Also, the “Turbidity (OD 500 nm)” value runs as follows: under setting [7], 0 OD 500 nm; under setting [4], 0 OD 500 nm.

Turning to `NCCCC[C@H](N)C(=O)O` [Lysine], under setting [7], the “Precipitation (%)” value is 0% and the “Turbidity (OD 500 nm)” value is on record as 0 OD 500 nm. Under setting [4], the “Precipitation (%)” value is given as 0% and the “Turbidity (OD 500 nm)” value is on record as 0 OD 500 nm.

Take Ca^2+: the “Precipitation (%)” value is recorded as 0% (charge ratio (taurocholate/precipitant) 0.2, in 50 mM Tris-HCl, pH=7.4); 100% under setting [8]; 0% under setting [9]; 0% under setting [10]. Moreover, the “Turbidity (OD 500 nm)” value was 0.23 ± 0.06 (max) OD 500 nm (charge ratio (taurocholate/precipitant) 0.2, in 50 mM Tris-HCl, pH=7.4, maximal turbidity observed); 0.25 ± 0.05 (max) OD 500 nm (charge ratio (taurocholate/precipitant) 0.2, in PBS, maximal turbidity observed); 0.12 ± 0.03 OD 500 nm under setting [9]; 0.13 ± 0.03 OD 500 nm under setting [10].

In the case of Mg^2+, under setting [8], the “Precipitation (%)” value came to 0% and the “Turbidity (OD 500 nm)” value came to 0 OD 500 nm. Further, under setting [11], the “Precipitation (%)” value is recorded as 0% and the “Turbidity (OD 500 nm)” value came out at 0 OD 500 nm.

As to Polylysine [Polylysine Mr = 2300], the precipitation (Figure 3, equivalence point: poly K = 0.056 mM) is on record as 100%. The “Precipitation (%)” value worked out at 100% (charge ratio (taurocholate/precipitant) 0.5 ± 0.1, PBS) and 100% under setting [12]. Besides, the “Turbidity (OD 500 nm)” value was 0.9 ± 0.1 (max) OD 500 nm (charge ratio (taurocholate/precipitant) 0.5 ± 0.1, PBS, maximal turbidity observed) and 0.6 ± 0.2 OD 500 nm under setting [12].

For the compound Polylysine [Polylysine Mr = 21600], the precipitation (Figure 2, equivalence point: poly K = 0.0061 mM) is given as 100%. The “Precipitation (%)” value under setting [13] is 100%, the “Precipitation (%)” value under setting [14] worked out at 100%, the “Precipitation (%)” value under setting [15] came out at 100% and the “Precipitation (%)” value under setting [16] turned out to be 100%. Further, the “Turbidity (OD 500 nm)” value is recorded as 1.6 ± 0.2 OD 500 nm under setting [13], 0.4 ± 0.03 OD 500 nm under setting [14], 1.3 ± 0.1 OD 500 nm under setting [15] and 0.13 ± 0.05 OD 500 nm under setting [16].
